ChEMBL document CHEMBL1141416, “Discovery of a potent and selective prostaglandin D2 receptor antagonist, [(3R)-4-(4-chloro-benzyl)-7-fluoro-5-(methylsulfonyl)-1,2,3,4-tetrahydrocyclopenta[b]indol-3-yl]-acetic acid (MK-0524)” (J Med Chem, 2007)

How the values were obtained:
[1] = Metabolic stability in rat hepatocytes after 2 hrs at 50 uM; type: ADME, cell-based, Hepatocyte; conditions: read-out: Stability
[2] = target: Prostaglandin E2 receptor EP4 subtype (Homo sapiens, UniProt P35408); assay: Binding affinity to human EP4 receptor expressed in HEK293 cells; type: cell-based
[3] = Activity at human TP receptor in platelet rich plasma assessed as inhibition […]-induced platelet aggregation
[4] = Volume of distribution in Sprague-Dawley rat at 10 mg/kg, po and 5 mg/kg, iv; type: ADME, organism-based; conditions: in vivo
[5] = (§1) Cmax in Sprague-Dawley rat after 6 hrs at 10 mg/kg, po; type: ADME, organism-based; set-up: dose 10 mg/kg, route oral; conditions: Sprague-Dawley, in vivo
[6] = Cmax in Sprague-Dawley rat biliary fluid by bile duct cannulation study at 5 mg/kg, iv; type: ADME, organism-based; set-up: dose 5 mg/kg, route intravenous
[7] = Plasma clearance in Sprague-Dawley rat at 10 mg/kg, po and 5 mg/kg, iv; type: ADME, organism-based; set-up: unit not given here
[8] = Tmax in Sprague-Dawley rat biliary fluid by bile duct cannulation study at 5 mg/kg, iv; type: ADME, organism-based; set-up: dose 5 mg/kg, route intravenous
[9] = Bioavailability in Sprague-Dawley rat at 10 mg/kg, po and 5 mg/kg, iv; type: ADME, organism-based; conditions: in vivo
[10] = Plasma half life in Sprague-Dawley rat at 5 mg/kg, iv; type: ADME, organism-based; set-up: dose 5 mg/kg, route intravenous
[11] = Cmax in Sprague-Dawley rat at 10 mg/kg, po; type: ADME, organism-based; set-up: dose 10 mg/kg, route oral; conditions: in vivo
[12] = system: Rattus norvegicus; assay: as §1; type: ADME, organism-based; set-up: dose 10 mg/kg, route oral; conditions: in vivo, 6 h
[13] = Cmax in Sprague-Dawley rat after 6 hrs at 100 mg/kg, po; type: ADME, organism-based; set-up: dose 100 mg/kg, route oral; conditions: in vivo
[14] = system: Rattus norvegicus; assay: AUC (0-6hrs) in Sprague-Dawley rat at 100 mg/kg, po; type: ADME, organism-based, Plasma; set-up: time < 6 hr, dose 100 mg/kg, route oral; conditions: in vivo
[15] = Cmax in Sprague-Dawley rat at 100 mg/kg, po; type: ADME, organism-based; set-up: dose 100 mg/kg, route oral; conditions: in vivo
[16] = system: Rattus norvegicus; assay: AUC (0-6hrs) in Sprague-Dawley rat at 10 mg/kg, po; type: ADME, organism-based, Plasma; set-up: time < 6 hr, dose 10 mg/kg, route oral; conditions: in vivo
[17] = system: Hepatocyte; assay: Covalent protein binding in rat hepatocyte after 2 hrs at 10 uM; type: ADME, cell-based; conditions: hepatocytes
[18] = system: Liver microsomes; assay: Protein binding in rat liver microsomes in presence of NADPH after 1 hr at 10 uM; type: ADME, Microsome
[19] = system: Liver microsomes; assay: Covalent protein binding in human liver microsomes in presence of NADPH after 1 hr at 10 uM; type: ADME, Microsome
[20] = system: Hepatocyte; assay: Protein binding in human hepatocyte after 2 hrs at 10 uM; type: ADME, cell-based; conditions: hepatocytes
[21] = target: T1, Prostaglandin D2 receptor (Homo sapiens, UniProt Q13258); assay: Activity at human DP receptor in platelet rich plasma assessed as inhibition of PGD2-induced cAMP accumulation; type: functional
T1 sequence (Q13258 whole entry): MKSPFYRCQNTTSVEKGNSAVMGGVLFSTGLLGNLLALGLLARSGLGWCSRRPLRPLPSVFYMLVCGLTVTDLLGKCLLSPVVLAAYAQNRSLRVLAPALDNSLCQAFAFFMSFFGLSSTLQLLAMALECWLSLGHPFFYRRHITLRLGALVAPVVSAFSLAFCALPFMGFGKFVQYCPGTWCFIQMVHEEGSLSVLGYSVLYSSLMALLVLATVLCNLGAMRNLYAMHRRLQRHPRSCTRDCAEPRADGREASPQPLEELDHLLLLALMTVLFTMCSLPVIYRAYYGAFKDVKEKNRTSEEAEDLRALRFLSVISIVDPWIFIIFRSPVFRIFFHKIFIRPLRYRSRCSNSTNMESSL

[22] = target: T2, Prostaglandin E2 receptor EP1 subtype (Homo sapiens, UniProt P34995); assay: Binding affinity to human EP1 receptor expressed in HEK293 cells; type: cell-based
T2 sequence (P34995 whole entry): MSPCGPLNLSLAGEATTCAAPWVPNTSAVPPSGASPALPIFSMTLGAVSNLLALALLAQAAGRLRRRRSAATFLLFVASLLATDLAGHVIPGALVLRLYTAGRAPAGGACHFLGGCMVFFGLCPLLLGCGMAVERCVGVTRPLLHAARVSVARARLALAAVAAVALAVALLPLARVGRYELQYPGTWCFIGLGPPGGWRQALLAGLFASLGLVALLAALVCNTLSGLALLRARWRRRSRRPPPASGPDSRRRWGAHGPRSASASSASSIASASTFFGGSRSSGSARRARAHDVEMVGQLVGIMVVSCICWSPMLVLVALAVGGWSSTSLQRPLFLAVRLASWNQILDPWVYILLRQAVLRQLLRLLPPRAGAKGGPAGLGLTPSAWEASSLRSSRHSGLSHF

[23] = target: Prostacyclin receptor (Homo sapiens, UniProt P43119); assay: Binding affinity to human IP receptor expressed in HEK293 cells; type: cell-based
[24] = target: T3, Thromboxane A2 receptor (Homo sapiens, UniProt P21731); assay: Binding affinity to human TP receptor expressed in HEK293 cells; type: cell-based
T3 sequence (P21731 whole entry): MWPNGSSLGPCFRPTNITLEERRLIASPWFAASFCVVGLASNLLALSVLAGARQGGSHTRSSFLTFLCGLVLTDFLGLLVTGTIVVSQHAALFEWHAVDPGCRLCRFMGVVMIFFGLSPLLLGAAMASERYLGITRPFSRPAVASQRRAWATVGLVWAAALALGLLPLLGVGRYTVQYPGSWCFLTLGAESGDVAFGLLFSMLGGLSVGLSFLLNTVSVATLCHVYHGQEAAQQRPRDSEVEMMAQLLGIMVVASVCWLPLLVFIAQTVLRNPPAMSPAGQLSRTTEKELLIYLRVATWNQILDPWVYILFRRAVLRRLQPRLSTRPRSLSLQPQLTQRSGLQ

[25] = target: Prostaglandin E2 receptor EP2 subtype (Homo sapiens, UniProt P43116); assay: Binding affinity to human EP2 receptor expressed in HEK293 cells; type: cell-based
[26] = target: T4, Prostaglandin E2 receptor EP3 subtype (Homo sapiens, UniProt P43115); assay: Binding affinity to human EP3 receptor expressed in HEK293 cells; type: cell-based
T4 sequence (P43115 whole entry): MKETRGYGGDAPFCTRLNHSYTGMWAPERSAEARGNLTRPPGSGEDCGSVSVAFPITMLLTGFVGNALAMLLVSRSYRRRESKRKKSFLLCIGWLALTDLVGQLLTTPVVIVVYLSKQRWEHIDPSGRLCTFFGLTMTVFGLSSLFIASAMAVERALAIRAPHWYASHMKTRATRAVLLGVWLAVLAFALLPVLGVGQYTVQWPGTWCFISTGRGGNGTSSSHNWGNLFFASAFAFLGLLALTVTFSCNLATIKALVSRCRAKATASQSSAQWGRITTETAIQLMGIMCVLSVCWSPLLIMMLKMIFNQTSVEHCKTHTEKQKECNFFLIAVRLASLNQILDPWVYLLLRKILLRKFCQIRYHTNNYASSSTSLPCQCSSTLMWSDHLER

[27] = target: T1, Prostaglandin D2 receptor; assay: Binding affinity to human DP receptor expressed in HEK293 cells; type: cell-based
[28] = target: T1, Prostaglandin D2 receptor; assay: Activity at human DP receptor in washed platelets assessed as inhibition of PGD2-induced cAMP accumulation; type: functional
[29] = target: Prostaglandin F2-alpha receptor (Homo sapiens, UniProt P43088); assay: Binding affinity to human FP receptor expressed in HEK293 cells; type: cell-based
[30] = Plasma concentration in sheep allergic rhinitis model after 30 mins at 0.1 mg/kg, iv
[31] = Plasma concentration in sheep allergic rhinitis model after 30 mins at 0.03 mg/kg, iv

Chain of Prostaglandin E2 receptor EP4 subtype (P35408 whole entry): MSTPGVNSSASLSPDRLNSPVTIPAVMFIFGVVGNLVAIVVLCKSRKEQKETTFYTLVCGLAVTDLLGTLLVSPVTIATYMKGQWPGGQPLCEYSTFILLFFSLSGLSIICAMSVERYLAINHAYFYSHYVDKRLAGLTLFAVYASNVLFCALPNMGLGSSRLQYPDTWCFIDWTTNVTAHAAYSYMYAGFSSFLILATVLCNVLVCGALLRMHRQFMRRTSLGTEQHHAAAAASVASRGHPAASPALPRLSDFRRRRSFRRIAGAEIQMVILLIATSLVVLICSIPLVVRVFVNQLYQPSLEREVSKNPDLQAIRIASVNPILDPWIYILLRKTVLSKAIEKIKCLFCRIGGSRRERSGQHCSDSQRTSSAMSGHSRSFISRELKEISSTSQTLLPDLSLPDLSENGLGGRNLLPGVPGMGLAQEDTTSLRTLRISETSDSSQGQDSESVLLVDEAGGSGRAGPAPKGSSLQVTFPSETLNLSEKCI
Chain of Prostacyclin receptor (P43119 whole entry): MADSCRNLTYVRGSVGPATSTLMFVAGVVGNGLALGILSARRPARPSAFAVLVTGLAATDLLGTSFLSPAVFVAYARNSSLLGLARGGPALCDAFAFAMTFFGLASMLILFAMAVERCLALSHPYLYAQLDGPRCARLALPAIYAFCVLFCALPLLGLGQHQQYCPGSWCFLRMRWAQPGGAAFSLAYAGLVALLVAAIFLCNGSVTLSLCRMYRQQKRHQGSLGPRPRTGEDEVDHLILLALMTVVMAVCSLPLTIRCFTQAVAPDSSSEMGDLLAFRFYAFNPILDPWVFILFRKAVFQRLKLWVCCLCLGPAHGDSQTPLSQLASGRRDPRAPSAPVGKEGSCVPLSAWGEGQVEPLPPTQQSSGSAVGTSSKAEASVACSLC
Chain of Prostaglandin E2 receptor EP2 subtype (P43116 whole entry): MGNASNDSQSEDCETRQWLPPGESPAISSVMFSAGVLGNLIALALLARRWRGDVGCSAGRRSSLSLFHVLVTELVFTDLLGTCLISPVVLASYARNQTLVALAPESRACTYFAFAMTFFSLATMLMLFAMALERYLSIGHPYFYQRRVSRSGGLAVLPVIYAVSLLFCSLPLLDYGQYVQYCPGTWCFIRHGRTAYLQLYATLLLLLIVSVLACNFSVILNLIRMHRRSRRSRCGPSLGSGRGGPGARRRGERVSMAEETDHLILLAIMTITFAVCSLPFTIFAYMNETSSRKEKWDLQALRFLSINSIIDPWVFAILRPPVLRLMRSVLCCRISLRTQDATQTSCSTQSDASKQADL
Chain of Prostaglandin F2-alpha receptor (P43088 whole entry): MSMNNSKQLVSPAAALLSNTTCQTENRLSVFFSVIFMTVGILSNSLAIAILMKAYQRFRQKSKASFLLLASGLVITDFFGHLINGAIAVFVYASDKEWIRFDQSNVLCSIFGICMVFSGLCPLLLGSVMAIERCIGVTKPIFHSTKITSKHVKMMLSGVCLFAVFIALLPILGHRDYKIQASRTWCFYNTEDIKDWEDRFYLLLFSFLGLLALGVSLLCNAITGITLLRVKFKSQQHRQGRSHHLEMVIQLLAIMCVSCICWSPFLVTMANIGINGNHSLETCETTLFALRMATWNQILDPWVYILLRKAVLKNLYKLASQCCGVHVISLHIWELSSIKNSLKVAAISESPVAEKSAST

CC(O)c1cc(S(C)(=O)=O)cc2c3c(n(Cc4ccc(Cl)cc4)c12)[C@@H](CC(=O)O)CC3 (stereo not given in full)
remaining at 2 h, 50 µM [1]: 100% | Ki [2]: > 20 µM | IC50 [3]: 43 µM

CS(=O)(=O)c1cc(F)cc2c3c(n(Cc4ccc(Cl)cc4)c12)[C@@H](CC(=O)[O-])CC3.[Na+]
Vdss [4]: 0.5 Not_given | Cmax [5]: 6.3 µM | Cmax [6]: 103 µM | clearance [7]: 2.4 | Tmax [8]: 0.5 h | bioavailability [9]: 79% | half-life [10]: 7 h | Cmax [11]: 39 µM

CC(=O)c1cc(S(C)(=O)=O)cc2c3c(n(Cc4ccc(Cl)cc4)c12)[C@@H](CC(=O)[O-])CC3.[Na+]
Vdss [4]: 0.7 Not_given | Cmax [12]: 0.6 µM | Cmax [6]: 1100 µM | clearance [7]: 14 | Tmax [8]: 0 h | bioavailability [9]: 128% | half-life [10]: 1.4 h | Cmax [13]: 7 µM | AUC [14]: 120 µM·h | Cmax [11]: 21 µM | Cmax [15]: 31 µM | AUC [16]: 30 µM·h

CC(=O)c1cc(F)cc2c3c(n(Cc4ccc(Cl)cc4)c12)[C@@H](CC(=O)[O-])CC3.[Na+]
Vdss [4]: 0.5 Not_given | Cmax [5]: 7.5 µM | Cmax [6]: 81 µM | clearance [7]: 1.9 | Tmax [8]: 2.5 h | bioavailability [9]: 52% | half-life [10]: 4 h | Cmax [11]: 21 µM

CC(O)c1cc(S(C)(=O)=O)cc2c3c(n(Cc4ccc(Cl)cc4)c12)[C@@H](CC(=O)[O-])CC3.[Na+] (stereo not given in full)
Vdss [4]: 0.8 Not_given | Cmax [5]: 0.03 µM | Cmax [6]: 3900 µM | clearance [7]: 50 | Tmax [8]: 0 h | bioavailability [9]: 8% | half-life [10]: < 1 h | Cmax [11]: 0.29 µM

O=[14C](O)C[C@H]1CCc2c1n(Cc1ccc(Cl)cc1)c1c(Br)cc(F)cc21
Activity [17]: 74 pmol/mg/h | Activity [18]: 460 pmol/mg/h | Activity [19]: 33 pmol/mg/h | Activity [20]: 33 pmol/mg/h

[3H]C([3H])([3H])S(=O)(=O)c1cc(C(C)O)c2c(c1)c1c(n2Cc2ccc(Cl)cc2)[C@@H](CC(=O)O)CC1 (stereo not given in full)
Activity [17]: 9 pmol/mg/h | Activity [18]: 13 pmol/mg/h | Activity [19]: 9 pmol/mg/h | Activity [20]: < 5 pmol/mg/h

CC(=O)c1cc(F)cc2c3c(n(Cc4ccc(Cl)cc4)c12)[C@@H](C[14C](=O)O)CC3
Activity [17]: 45 pmol/mg/h | Activity [18]: 290 pmol/mg/h | Activity [19]: 46 pmol/mg/h | Activity [20]: 16 pmol/mg/h

O=C([O-])C[C@H]1CCc2c1n(Cc1ccc(Cl)cc1)c1c(Br)cc(F)cc21.[Na+]
Vdss [4]: 0.4 Not_given | Cmax [5]: 3.7 µM | Cmax [6]: 29 µM | clearance [7]: 1.4 | Tmax [8]: 1 h | bioavailability [9]: 41% | half-life [10]: 12 h | Cmax [11]: 10 µM

CC(=O)c1cc(S(C)(=O)=O)cc2c3c(n(Cc4ccc(Cl)cc4)c12)[C@@H](CC(=O)O)CC3
remaining at 2 h, 50 µM [1]: 93% | IC50 [3]: 8.4 µM

CC(=O)c1cc(F)cc2c3c(n(Cc4ccc(Cl)cc4)c12)[C@@H](CC(=O)O)CC3
IC50 [21]: 0.015 µM (antagonist) | Ki [22]: > 9 µM | Ki [23]: 14 µM | Ki [24]: 0.014 µM (antagonist) | Ki [25]: 0.31 µM (antagonist) | remaining at 2 h, 50 µM [1]: 35% | Ki [26]: 1.2 µM | Ki [2]: > 20 µM | Ki [27]: 0.0011 µM (antagonist) | IC50 [28]: 0.00029 µM (antagonist) | Ki [29]: > 20 µM

[3H]C([3H])([3H])S(=O)(=O)c1cc(C(C)=O)c2c(c1)c1c(n2Cc2ccc(Cl)cc2)[C@@H](CC(=O)O)CC1
Activity [17]: 8 pmol/mg/h | Activity [18]: 23 pmol/mg/h | Activity [19]: 18 pmol/mg/h | Activity [20]: 5 pmol/mg/h

O=C(O)C[C@H]1CCc2c1n(Cc1ccc(Cl)cc1)c1c(Br)cc(F)cc21
IC50 [21]: 0.023 µM (antagonist) | Ki [22]: 4.4 µM | Ki [23]: 0.4 µM (antagonist) | Ki [24]: 0.00084 µM (antagonist) | Ki [25]: 0.41 µM (antagonist) | remaining at 2 h, 50 µM [1]: 42% | Ki [26]: 0.47 µM (antagonist) | Ki [2]: 4.4 µM | Ki [27]: 0.0015 µM (antagonist) | IC50 [28]: 0.00026 µM (antagonist) | Ki [29]: 14 µM

CS(=O)(=O)c1cc(F)cc2c3c(n(Cc4ccc(Cl)cc4)c12)[C@@H](CC(=O)O)CC3 [LAROPIPRANT]
remaining at 2 h, 50 µM [1]: 32% | concentration at 0.5 h [30]: 0.67 µM | concentration at 0.5 h [31]: 0.091 µM
